Earlier results in patent US6949260B2, “Method for treatment of inflammation and pain in mammals” (Metagenics, Inc., priority 2000, dated 2005).

Columns and labels:
[1] = system: thromboxane B2 production; details: in vitro
human platelet = details: induced by arachidonic acid, adrenaline and collagen

Q: Which “thromboxane B2 production from arachidonic acid” value [1] does the source give for `COc1cc(/C=C/C(=O)CC(=O)/C=C/c2ccc(O)c(OC)c2)ccc1O` [Curcumin] here?
A: inhibits thromboxane B2 production

Q: What about the “inhibition of human platelet aggregation” value (human platelet) of the same compound?
A: inhibit human platelet aggregation
